Here are results for 8 substances from paper PMC6751662, “Pharmacological and functional similarities of the human neuropeptide Y system in C. elegans challenges phylogenetic views on the FLP/NPR system” (Cell Communication and Signaling : CCS, 2019).

One assay addresses T1, NPR-3 (Caenorhabditis elegans, UniProt P90745).
T1 construct: expressed in transfected cells; host or cells: HEK293
T1 sequence (P90745 1-376): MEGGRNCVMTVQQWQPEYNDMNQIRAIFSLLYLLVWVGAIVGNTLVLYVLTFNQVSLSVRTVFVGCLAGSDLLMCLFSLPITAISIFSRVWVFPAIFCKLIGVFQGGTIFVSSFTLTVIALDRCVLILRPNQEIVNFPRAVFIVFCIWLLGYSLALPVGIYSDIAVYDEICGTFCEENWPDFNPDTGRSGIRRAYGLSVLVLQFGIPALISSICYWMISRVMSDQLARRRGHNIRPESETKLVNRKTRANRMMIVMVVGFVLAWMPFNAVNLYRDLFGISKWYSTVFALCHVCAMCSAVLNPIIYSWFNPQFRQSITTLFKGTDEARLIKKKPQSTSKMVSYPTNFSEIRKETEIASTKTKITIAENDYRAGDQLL
Description: IP accumulation assay, chimeric GαΔ6qi4myr, NPR-3. It is filed as cell-based, C. elegans. To be noted: 1 h, HBSS + 20 mM LiCl, HEK293 receptor + GαΔ6qi4myr, HTRF IP-One. The procedure: (§1) For measuring IP accumulation, HEK293 cells grown to 70–80% confluency in 6-well plates were transiently co-transfected using Metafectene Pro (2.5 μl/μg DNA; Biontex) with plasmids containing receptor and/or mock (empty pcDNA3.1) (for endogenous Gq-coupling) using 4 μg total DNA in a ratio of 3:1 following the manufacturer’s instructions. For testing Gα16- and GαΔ6qi4myr-coupling, plasmids encoding the corresponding Gα protein were co-transfected instead of mock. Gα16 is naturally promiscuous and stimulates the phospholipase C (PLC) pathway leading to IP production, while the exchange of the C-terminal four amino acids of Gαq for the corresponding residues of Gαi1 in the chimeric GαΔ6qi4myr confers the ability to couple to Gi/o protein-preferring receptors but still stimulate PLC, thus specifically redirecting downstream cellular signaling. 16 h post transfection, the cells were seeded into white 384-well plates at a density of 20,000 cells/well. Media was removed 24 h later and the cells were incubated with the indicated concentration of peptides for 1 h in HBSS + 20 mM LiCl. IP accumulation was measured with the HTRF-based IP-One Gq kit (Cisbio) on a microplate reader (Tecan Spark).
(§2) For in vitro activation, data is presented as mean ± SEM of at least three independent experiments conducted in technical triplicate. […] For the C. elegans NPRs, we considered the strongest response elicited by any of the peptides downstream of a particular receptor as the receptor’s maximal signal. This may or may not be the biological maximum that can be reached by the ‘true’ endogenous agonist. For the human receptors, the response to the established endogenous agonist reflected the maximal signal.
(In general: Time-resolved FRET reads energy transfer from a long-lived donor to a nearby acceptor.)

The target in a further assay is T2, NPR-1 (Caenorhabditis elegans, UniProt Q18534).
T2 sequence (Q18534 1-457): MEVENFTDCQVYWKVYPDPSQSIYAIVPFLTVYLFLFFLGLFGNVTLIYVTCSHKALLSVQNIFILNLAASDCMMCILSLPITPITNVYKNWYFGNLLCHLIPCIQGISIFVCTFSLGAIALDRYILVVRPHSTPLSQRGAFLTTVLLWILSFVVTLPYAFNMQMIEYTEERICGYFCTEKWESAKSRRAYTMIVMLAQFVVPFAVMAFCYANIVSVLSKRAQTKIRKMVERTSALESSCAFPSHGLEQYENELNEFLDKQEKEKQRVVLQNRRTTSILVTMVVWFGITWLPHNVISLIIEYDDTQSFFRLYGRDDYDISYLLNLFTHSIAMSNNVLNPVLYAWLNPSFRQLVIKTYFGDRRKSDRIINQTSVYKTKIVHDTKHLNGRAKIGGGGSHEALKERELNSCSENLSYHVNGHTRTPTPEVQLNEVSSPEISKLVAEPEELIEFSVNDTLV
The experiment in a line: IP accumulation assay, chimeric GαΔ6qi4myr, NPR-1. It is filed as cell-based, C. elegans. More on the design: expressed in transfected cells; host or cells: HEK293. To be noted: 1 h, HBSS + 20 mM LiCl, HEK293 receptor + GαΔ6qi4myr, HTRF IP-One. As to the method:
as §1, §2

Another assay deals with T3, NPFF1R (Homo sapiens, UniProt Q9GZQ6).
T3 construct: expressed in transfected cells; host or cells: HEK293, transient
T3 sequence (Q9GZQ6 whole entry): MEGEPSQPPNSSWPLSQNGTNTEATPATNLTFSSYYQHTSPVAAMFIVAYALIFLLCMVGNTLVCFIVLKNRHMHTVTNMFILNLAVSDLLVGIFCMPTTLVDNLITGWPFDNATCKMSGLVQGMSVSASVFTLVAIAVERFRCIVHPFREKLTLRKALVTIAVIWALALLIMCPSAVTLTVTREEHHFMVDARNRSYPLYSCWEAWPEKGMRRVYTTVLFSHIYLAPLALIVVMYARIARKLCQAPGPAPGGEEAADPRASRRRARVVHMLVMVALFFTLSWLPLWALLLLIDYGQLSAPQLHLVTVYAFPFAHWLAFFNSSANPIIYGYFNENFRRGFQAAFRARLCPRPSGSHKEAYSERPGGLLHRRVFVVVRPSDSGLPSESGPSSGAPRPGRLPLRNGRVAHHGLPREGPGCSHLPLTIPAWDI
Description: cAMP reporter gene assay, Gi/o, NPFF1R. Type of assay: cell-based. Particulars: for cAMP assay (Gi/o), NPFF1R: 4 h, lower = higher Gi/o activity, transfected HEK293, CRE-luciferase, mean of >=3 independent experiments; for Gi (Gs) [x-fold of forskolin], NPFF1R, mean: inhibition of cAMP production induced by 1 µM forskolin (set to 1.00), transiently transfected HEK293 cells, mean of at least three independent experiments. As to the method: (§3) Activation of Gs and Gi/o was assessed with a cAMP reporter gene assay. HEK293 cells grown to 70–80% confluency in 6-well plates were transiently co-transfected with vectors encoding the receptor and the cAMP reporter gene plasmid pGL4.29 [luc2P/CRE/Hygro] (Promega; 4 μg total, 1:1 ratio) using Metafectene Pro (3 μl/μg DNA; Biontex) following the manufacturer’s instructions. 16 h post transfection, the cells were seeded into white 384-well plates at a density of 20,000 cells/well. On the next day, the medium was removed and the cells were stimulated with 20 μl of peptide solution (or forskolin as positive control) in serum-free DMEM for 4 h. For measuring Gi/o activity, the peptide solutions additionally contained 1 μM forskolin to elevate cellular cAMP levels. After incubation, the luciferase substrate OneGlo in lysis buffer (Promega) was added and the luminescence was measured in a microplate reader Tecan Spark (Tecan). Data were analyzed with GraphPad Prism 5.03 and are shown as fold of basal or fold of forskolin in case of Gαi/o activity.
as §2

Another assay addresses T4, Y4R (Homo sapiens, UniProt P50391).
T4 construct: expressed in transfected cells; host or cells: HEK293, transient
The experiment in a line: cAMP reporter gene assay, Gi/o, Y4R. Type of assay: cell-based. To be noted: for cAMP assay (Gi/o), Y4R: 4 h, lower = higher Gi/o activity, transfected HEK293, CRE-luciferase, mean of >=3 independent experiments; for Gi (Gs) [x-fold of forskolin], Y4R, mean: inhibition of cAMP production induced by 1 µM forskolin (set to 1.00), transiently transfected HEK293 cells, mean of at least three independent experiments. As to the method:
as §3, §2

Another assay concerns the target T5, Y2R (Homo sapiens, UniProt P49146).
T5 construct: expressed in transfected cells; host or cells: HEK293, transient
T5 sequence (P49146 1-381): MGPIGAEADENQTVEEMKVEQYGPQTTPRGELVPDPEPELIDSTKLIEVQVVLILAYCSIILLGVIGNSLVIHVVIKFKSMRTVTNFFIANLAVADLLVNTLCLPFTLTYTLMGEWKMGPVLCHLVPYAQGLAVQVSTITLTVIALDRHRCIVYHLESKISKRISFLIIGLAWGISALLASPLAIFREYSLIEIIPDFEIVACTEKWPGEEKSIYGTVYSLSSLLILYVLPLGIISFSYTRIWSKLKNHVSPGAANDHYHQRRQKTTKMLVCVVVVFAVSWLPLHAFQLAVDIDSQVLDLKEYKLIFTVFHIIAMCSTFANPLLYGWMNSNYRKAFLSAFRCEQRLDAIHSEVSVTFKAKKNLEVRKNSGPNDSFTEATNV
Description: cAMP reporter gene assay, Gi/o, Y2R. To be noted: for cAMP assay (Gi/o), Y2R: 4 h, lower = higher Gi/o activity, transfected HEK293, CRE-luciferase, mean of >=3 independent experiments; for Gi (Gs) [x-fold of forskolin], Y2R, mean: inhibition of cAMP production induced by 1 µM forskolin (set to 1.00), transiently transfected HEK293 cells, mean of at least three independent experiments. Type of assay: cell-based. As to the method: as §3, §2
(Reporter assays use an easily measured gene product as a stand-in for the process of interest.)

The mark [1] stands for this setting: 0.1 µM peptide (Table S8), mean of >=3 independent experiments.
Where [2] appears, read: 10 µM peptide, mean of >=3 independent experiments (Tables S5 and S8).
[3] abbreviates: 0.1 nM peptide (Table S5), mean of >=3 independent experiments.
[4] abbreviates: 0.1 µM peptide + 1 µM forskolin (set to 1.00).
Where [5] appears, read: 10 µM peptide + 1 µM forskolin (set to 1.00).

T4 sequence (P50391 whole entry): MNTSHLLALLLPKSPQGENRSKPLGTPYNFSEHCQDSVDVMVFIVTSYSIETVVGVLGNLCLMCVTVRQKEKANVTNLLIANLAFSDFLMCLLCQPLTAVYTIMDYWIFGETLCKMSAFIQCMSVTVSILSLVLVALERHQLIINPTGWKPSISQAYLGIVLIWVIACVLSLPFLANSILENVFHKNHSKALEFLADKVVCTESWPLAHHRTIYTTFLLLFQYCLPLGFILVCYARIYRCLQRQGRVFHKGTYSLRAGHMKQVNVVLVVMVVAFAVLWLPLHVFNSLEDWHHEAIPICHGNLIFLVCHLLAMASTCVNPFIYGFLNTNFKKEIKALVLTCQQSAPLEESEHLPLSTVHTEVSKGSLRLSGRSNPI

Take “AGSDPNFLRF-NH2 [FLP-1-2, C. elegans FMRFamide-like peptide, C-terminally amidated, synthesized by SPPS]”: the figures for the “IP accumulation with GαΔ6qi4myr, NPR-3” value at NPR-3 (setting [1]) and on NPR-3 (setting [2]) were 0.96 x-fold of basal and 0.93 x-fold of basal, respectively. For the same substance, the entries for the “IP accumulation with GαΔ6qi4myr, NPR-1” value at NPR-1 (setting [1]) and on NPR-1 (setting [2]) were 1.03 x-fold of basal and 0.98 x-fold of basal, respectively.
Consider “APKPKFIRF-NH2 [FLP-5-1, C. elegans FMRFamide-like peptide, C-terminally amidated, synthesized by SPPS]”, for which, on NPR-3 (setting [3]), the “IP assay endog. Gαq + GαΔ6qi4myr, NPR-3” value was 0.88 x-fold of basal. Also, the “IP accumulation with GαΔ6qi4myr, NPR-3” value at NPR-3 (setting [1]) is on record as 0.88 x-fold of basal; on NPR-3 (setting [2]), 0.95 x-fold of basal. Moreover, the “IP assay endog. Gαq + GαΔ6qi4myr, NPR-1” value at NPR-1 (setting [3]) is 0.88 x-fold of basal. In addition, the results for the “IP accumulation with GαΔ6qi4myr, NPR-1” value at NPR-1 (setting [1]) and at NPR-1 (setting [2]) were 0.88 x-fold of basal and 0.93 x-fold of basal, respectively.
Regarding “APLEGFEDMSGFLRTIDGIQKPRF-NH2 [FLP-33, NPY-like C. elegans FLP with C-terminal RxRF/Ya signature]”, the “cAMP assay (Gi/o), NPFF1R” value on NPFF1R (setting [4]) was 0.81 x-fold of forskolin; on NPFF1R (setting [5]), 0.47 x-fold of forskolin. Also, the “cAMP assay (Gi/o), Y4R” value at Y4R (setting [4]) is recorded as 0.95 x-fold of forskolin; at Y4R (setting [5]), 0.90 x-fold of forskolin. Also, the entries for the “cAMP assay (Gi/o), Y2R” value at Y2R (setting [4]) and on Y2R (setting [5]) were 0.89 x-fold of forskolin and 0.76 x-fold of forskolin, respectively.
For “ASPSFIRF-NH2 [FLP-4-2, C. elegans FMRFamide-like peptide, C-terminally amidated, synthesized by SPPS]”, the results for the “IP accumulation with GαΔ6qi4myr, NPR-3” value at NPR-3 (setting [1]) and at NPR-3 (setting [2]) were 0.92 x-fold of basal and 1.05 x-fold of basal, respectively. Further, the “IP accumulation with GαΔ6qi4myr, NPR-1” value on NPR-1 (setting [1]) is on record as 0.83 x-fold of basal; at NPR-1 (setting [2]) it was 0.89 x-fold of basal.
As to “EASAFGDIIGELKGKGLGGRMRF-NH2 [FLP-27, NPY-like C. elegans FLP with C-terminal RxRF/Ya signature]”, the “cAMP assay (Gi/o), NPFF1R” value is recorded as 0.76 x-fold of forskolin on NPFF1R (setting [4]) and 0.26 x-fold of forskolin on NPFF1R (setting [5]). For the same substance, the “cAMP assay (Gi/o), Y4R” value on Y4R (setting [4]) was 1.01 x-fold of forskolin; at Y4R (setting [5]), 0.75 x-fold of forskolin. Further, the entries for the “cAMP assay (Gi/o), Y2R” value at Y2R (setting [4]) and on Y2R (setting [5]) were 0.80 x-fold of forskolin and 0.17 x-fold of forskolin, respectively.
As for “GLGPRPLAF-NH2 [[R8A]FLP-21, R8A control peptide of FLP-21, penultimate arginine exchanged for an alanine]”, the figures for the “Gi (Gs) [x-fold of forskolin], NPFF1R, mean” value at NPFF1R (0.1 µM peptide) and at NPFF1R (10 µM peptide) were 1.03 x-fold of forskolin and 0.66 x-fold of forskolin, respectively. In addition, the “Gi (Gs) [x-fold of forskolin], Y4R, mean” value at Y4R (0.1 µM peptide) is on record as 0.81 x-fold of forskolin; at Y4R (10 µM peptide) it was 0.85 x-fold of forskolin. Besides, the “Gi (Gs) [x-fold of forskolin], Y2R, mean” value on Y2R (0.1 µM peptide) was 0.88 x-fold of forskolin; at Y2R (10 µM peptide), 0.81 x-fold of forskolin.
With “NPENDTPFGTMRF-NH2 [FLP-3-4, C. elegans FMRFamide-like peptide, C-terminally amidated, synthesized by SPPS]”, the figures for the “IP accumulation with GαΔ6qi4myr, NPR-3” value on NPR-3 (setting [1]) and at NPR-3 (setting [2]) were 0.97 x-fold of basal and 0.91 x-fold of basal, respectively. The “IP accumulation with GαΔ6qi4myr, NPR-1” value at NPR-1 (setting [1]) is 0.98 x-fold of basal; on NPR-1 (setting [2]), 0.94 x-fold of basal.
With RGPSGPLAF-NH2 [[R8A]FLP-15-2], the “Gi (Gs) [x-fold of forskolin], NPFF1R, mean” value at NPFF1R (0.1 µM peptide) is given as 0.91 x-fold of forskolin; at NPFF1R (10 µM peptide) it was 0.71 x-fold of forskolin. Further, the “Gi (Gs) [x-fold of forskolin], Y4R, mean” value is given as 0.79 x-fold of forskolin on Y4R (0.1 µM peptide) and 0.94 x-fold of forskolin at Y4R (10 µM peptide). The “Gi (Gs) [x-fold of forskolin], Y2R, mean” value is listed as 0.86 x-fold of forskolin on Y2R (0.1 µM peptide) and 1.05 x-fold of forskolin at Y2R (10 µM peptide).
